Results published in US7943667B2, “Potentiating the effect of compound comprising nitric oxide” (Duke University, priority 2007, dated 2011).
Like-named read-outs stand apart in the source and are kept apart here.

Assays:
lung cells = assay: S-nitrosothiol uptake in lung cells (LAT / PEPT2 transport); assay type: cell-based, rat
Source text: It was shown in a kidney cell line that transportation of extracellular S-nitrosothiols in the form of S-nitroso-L-cysteine through the L-type amnio acid transporter (LAT1) is necessary to achieve maximum intracellular S-nitrosothiol accumulation. It was also shown that eliminating the L-type amino acid transporter or blockade of the transporter severely limited the ability of extracellular S-nitroso-L-cysteine to gain entry into the kidney cell line. […] The results for kidney cell line were then obtained for umbilical endothelial cells. This reinforced our conception. We then performed exposures of rat pulmonary alveolar epithelial cells to a variety of S-nitrosothiol and nitric oxide donors and tested whether or not S-nitrosothiol and nitric oxide uptake required transnitrosylation of L-cysteine and uptake through L-type amino acid transport. In particular we conducted experiments using rat alveolar epithelial cells. […] We also tested the dipeptide transporter, PEPT2. […] When we added L-cysteine to the mixture, the high levels of S-nitrosothiol uptake in lung cells were restored, and this restoration was blocked when we blocked function of L-type amino acid transporter by competition or inhibition.
We conducted additional studies to determine if an alternate transporter, namely PEPT2, could account for some of the S-nitrosothiol uptake in lung cells. […] This confirmed the importance of L-cysteine as the carrier which is necessary to achieve high levels of S-nitrosothiols in lung cells. We confirmed these finding in freshly isolated lung cells as well.

[1] = tested on: Rat L2 (alveolar) cells, alveolar T1/T2 cells, alveolar macrophages; assay: NO gas at air-liquid interface, DAF-FM NO signal in L2, alveolar T1/T2 cells and alveolar macrophages; assay type: cell-based; details: NO gas 10 ppm x 4 h; for L-Cys increase of NO signal (effect of competitors): competitors 10 mM x 1 h; for NO signal in all cell types: D- or L-Cys 50 μM, 4-8 wells/group
Protocol: Rat L2 (alveolar) cells were used at passage 30. 1° alveolar T1/T2 cells were isolated from adult rat lungs with antibody-coated magnetic beads, and identified by immunocytochemistry (T1: T1^α, aquaporin-5; T2: pro-SP-C). Alveolar macrophages were obtained by lavage. Cells were plated onto collagen-coated transwells, grown submerged×2d, then incubated with DAF-FM to detect NO. Apical medium was replaced by buffer+glutathione 0.2 mM,±D-or L-Cys 50 μM±LAT competitors L-Leu or BCH, 10 mM×1 h then exposed to air or NO gas 10 ppm×4 h. Fluorescence was read in 4-8 wells/condition. LAT-1 expression was measured/RT-PCR in air or 95% O2-exposed newborn rat lung (day 2, 3, 4, 8).

[2] = Transwell air-liquid interface exposure to NO or ENO gas, intracellular NO signal (DAF-FM); assay type: cell-based; details: NO or ENO gas 10 ppm for 4 hours; for NO signal produced by ENO or NO gas: buffer with 0.2 mM glutathione
Protocol: Cells were plated onto rat-tail collagen coated plastic inserts in a transwell system. When cells were firmly adherent and intact in appearance by microscopy, usually 24 h after plating, cell inserts were incubated in DAF-FM diacetate for one hour, then rinsed in Hepes-buffered Hank's balanced salt solution without amino acids. Buffer was removed from the upper chamber of the transwell and replaced with phosphate-buffered saline containing 0.2 mM glutathione in order to mimic the glutathione levels found in human alveolar lining fluid. […] The volume added was a few microliters sufficient to produce a layer of buffer ˜2 micron in thickness, in an effort to model the alveolar lining fluid thickness in the mammalian lung. Cell inserts were incubated at air liquid interface for 30 minutes, then exposed to NO or ENO gas 10 ppm for 4 hours. Inserts were then placed into a fluorescent microplate reader to detect the intracellular NO signal.

[3] = Newborn piglet saline-lavage lung injury with pulmonary hypertension, pulmonary artery pressure; assay type: in vivo; details: lungs lavaged with saline, inhaled NO 10 ppm, 56 Torr before treatment
Protocol: Newborn piglet was anesthetized and a thoracotomy was performed after placing arterial and venous monitoring catheters. A catheter was placed in the pulmonary artery and flow sensors around the pulmonary artery were placed.

Rat alveolar (L2) cells [4] = assay: Intracellular NO signal (DAF-FM fluorescence) in L2 cells incubated with ENO; assay type: cell-based; details: ENO 10 mM, L-Leu 10 mM; for ENO induced intracellular NO signal (DAF): L-Cys 0.5 mM, by 24 minutes, N=5/group, p<0.05
Protocol: (§1) Rat alveolar (L2) cells were located with DAF-FM (converted intracellularly to DAF; NO^++DAF→fluorescense), then incubated with ENO 10 mM+L-Cys 0.5 mM, L-Leu 10 mM (competitor for L-Cys entry via LAT1), or both L-Cys+L-Leu. DAF signal was measured at 5, 10, and 24 min. In parallel studies, S—NO was measured in L2 cell lysates after co-incubation with ENO 0.2 mM±L-Cys 0.5 mM±L-Leu 10 mM by ozone chemiluminescense (normalized to protein). LAT1 protein was detected by western and immunocytochemistry in 8d air or 95% O2—exposed rat lung.

Rat alveolar (L2) cells [5] = assay: S-NO in L2 cell lysates by ozone chemiluminescence; assay type: cell-based; details: for ENO induced SNO accumulation: ENO 0.2 mM ± L-Cys 0.5 mM ± L-Leu 10 mM, N=2/group
Protocol: as §1

[6] = tested on: rat alveolar pulmonary epithelial cells (L2 and Type II); assay: SNO/NO accumulation with NO donors in alveolar epithelial cells; assay type: cell-based; details: L-Cys added to NO donors; inhibited by co-incubation with LAT competitors
Protocol: We carried out experiments showing that addition of L-Cys to NO donors increased SNO/NO accumulation that was inhibited by co-incubation with LAT competitors in rat alveolar pulmonary epithelial cells (L2 and Type II). These are described in Granilla, O. M., AM. J. Physiol Lung Cell Mol. Physiol 295: L38-L43 (first published Apr. 25, 2008).

[7] = Working Example II: prevention of bronchopulmonary dysplasia in a premature newborn; assay type: in vivo, human; details: L-cysteine 36 micrograms/kg daily with continuous ethyl nitrite 1-10 ppm for 14 days
Source text: The patient is born at 25 weeks estimated gestational age following preterm prolonged spontaneous rupture of amniotic membranes. The patient requires immediate endotracheal intubation at birth as well as mechanical ventilation. The patient receives the usual neonatal intensive care including exogenous surfactant administration, indomethacin prophylaxis for prevention of intraventricular hemorrhage, and intravenous antibiotics. Because the patient is at high risk to develop bronchopulmonary dysplasia, the patient is treated each day with a single dose of 36 micrograms/kg of L-cysteine and continuous ethyl nitrite at 1-10 ppm for a total of 14 days. (This is done via […] unless the patient should be extubated, in which case the inhaled ethyl nitrite is delivered via nasal cannula and the L-cysteine is administered once a day via nebulizer) Within five days, the patient is weaned from mechanical ventilation and extubated to nasal continuous positive airway pressure, continuing to receive inhaled […] 1-10 ppm, and daily L-cysteine at 36 micrograms/kg. […], the continuous positive airway pressure is discontinued. […] the patient is discharged home, without any diagnosed complications of extreme prematurity. This example represents prevention of development of bronchopulmonary dysphasia in a premature newborn infant.

[8] = Working Example I: persistent pulmonary hypertension of the newborn; assay type: in vivo, human; details: L-cysteine 36 micrograms/kg by nebulizer, then inhaled ethyl nitrite or nitric oxide 1-50 ppm; from 88%
Protocol: A newborn is delivered at 41 weeks gestational age through thick meconium following a labor requiring augmentation with oxytocin. They are immediately noted at birth to experience respiratory distress and cyanosis. […] Their respiratory distress worsens requiring mechanical ventilation. […] The patient is treated with 36 micrograms/kg of L-cysteine by nebulizer attached to the inspiratory limb of the ventilator circuit, followed by initiation of inhaled ethyl nitrite or inhaled nitric oxide at 1-50 ppm. The patient SpO2 rises immediately from 88% to 100%, and systolic blood pressure improves. This example represents treatment of persistent pulmonary hypertension of the newborn.

**Q.** Which “S-nitrosothiol signal / accumulation in lung cells” value (lung cells) does the source give for `N[C@@H](CSN=O)C(=O)NCC(=O)O` [S-nitroso-L-cysteinyl-glycine] here?
**A.** Its value is “could not achieve high levels”.

**Q.** What about the “S-nitrosothiol signal / accumulation in lung cells” value (lung cells; listed as S—NO-Cys-Gly) of the same compound?
**A.** Its value is “did not significantly increase”.

**Q.** With `NC1(C(=O)O)CC2CCC1C2` (stereo not drawn) [BCH, 2-aminobicyclo-(2,2,1)-heptane-2-carboxylic acid] as the compound, how does the “L-Cys increase of NO signal (effect of competitors)” value [1] read?
**A.** Its value is “blocked”.

**Q.** What about the “L-cysteine augmentation of NO signal (effect of LAT competitors)” value ([2]; with L-cysteine) of the same compound?
**A.** Its value is “completely abolished”.

**Q.** With `[N]=O` [Inhaled nitric oxide, nitric oxide] as the compound, how does the “peak pulmonary pressure / pulmonary artery pressure” value [3] read?
**A.** Its value is 45 Torr.

**Q.** Which “uptake in lung cells via dipeptide transporter PEPT2” value (lung cells) does the source give for `N[C@@H](CS)C(=O)NCC(=O)O` [L-cysteinyl-glycine] here?
**A.** The value was “taken up”.

**Q.** Which results are given for `CCON=O` [ENO, ethyl nitrite]?
**A.** intracellular NO^+ (DAF) (Rat alveolar (L2) cells [4]; 5, 10 and 24 min): increased; intracellular SNO (Rat alveolar (L2) cells [5]; ENO 0.2 mM): increased

**Q.** Which “NO signal in all cell types” value [1] does the source give for `N[C@H](CS)C(=O)O` [D-cysteine] here?
**A.** The value was “not”.

**Q.** And the “NO signal produced by ENO or NO gas” value [2]?
**A.** The value was “no effect”.

**Q.** With `N[C@@H](CS)C(=O)O` [L-cysteine] as the compound, how does the “ENO induced intracellular NO signal (DAF)” value (Rat alveolar (L2) cells [4]) read?
**A.** Its value is “augmented”.

**Q.** What about the “S-nitrosothiol signal / accumulation in lung cells” value (lung cells) of the same compound?
**A.** The value was “restored”.

**Q.** What about the SNO/NO accumulation [6] of the same compound?
**A.** The SNO/NO accumulation was “increased”.

**Q.** What about the “NO signal in all cell types” value [1] of the same compound?
**A.** The value was “increased”.

**Q.** What about the “bronchopulmonary dysplasia at 36 weeks post conceptual age” value [7] of the same compound?
**A.** Its value is “no evidence of bronchopulmonary dysplasia”.

**Q.** What about the “NO signal produced by ENO or NO gas” value [2] of the same compound?
**A.** Its value is “augmentation”.

**Q.** And the SpO2 [8]?
**A.** Its SpO2 is 100%.

**Q.** What about the “ENO induced SNO accumulation” value (Rat alveolar (L2) cells [5]) of the same compound?
**A.** Its value is “augmented”.

**Q.** What does the source list for `CC(C)C[C@H](N)C(=O)O` [L-leucine]?
**A.** ENO induced intracellular NO signal (DAF) (Rat alveolar (L2) cells [4]): significantly less; L-Cys increase of NO signal (effect of competitors) [1]: blocked; ENO induced SNO accumulation (Rat alveolar (L2) cells [5]): did not augment
